Read-outs that look alike come from different tables or passages of the source.
Target: T1, CsFAOMT1 (Camellia sinensis, UniProt A0A7J7GXF2)
T1 construct: gene HYC85_015345
Conditions: 1.0 mM Mg2+, pH 7.4, 40 °C, exact value in supplement

T1 sequence (A0A7J7GXF2 entry or part of it): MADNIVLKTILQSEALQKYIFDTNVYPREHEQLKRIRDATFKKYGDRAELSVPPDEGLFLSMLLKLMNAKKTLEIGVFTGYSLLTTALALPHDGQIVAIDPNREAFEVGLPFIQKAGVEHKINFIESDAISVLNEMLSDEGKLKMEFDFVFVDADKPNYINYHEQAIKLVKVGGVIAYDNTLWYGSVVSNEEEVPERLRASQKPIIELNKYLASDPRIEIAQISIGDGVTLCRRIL

| Compound | Km (1 mM SAM) | Km (saturating SAM) |
| --- | --- | --- |
| O=c1c(O[C@@H]2O[C@H](CO)[C@@H](O)[C@H](O)[C@H]2O)c(-c2ccc(O)c(O)c2)oc2cc(O)cc(O)c12 [isoquercitrin] | > 2500 µM | – |
| COC(=O)c1cc(O)c(O)c(O)c1 [methyl gallate] | – | < 4 µM |
| O=c1c(O)c(-c2cc(O)c(O)c(O)c2)oc2cc(O)cc(O)c12 [myricetin] | – | < 4 µM |
